Patent publication US9802897B2, “Amidopyridinol derivative or pharmaceutically acceptable salt thereof and pharmaceutical composition comprising same as active component” (Research Cooperation Foundation of Yeungnam University, priority 2013, dated 2017)
“And” between values parts separate entries of the source, which are not always exact repeats. Equal values may be shown once.

How the values were obtained:
[1] = test system: VEGF-induced angiogenesis in chicken chorioallantoic membrane (CAM); assay: CAM analysis of VEGF-induced angiogenesis; assay type: in vivo; settings: for inhibition in vivo at 0.01 nmol/CAM: Gallus gallus, 72 h, VEGF (20 ng/CAM) + Compound (0.01 nmol/CAM), number of blood vessels after 3 days, read-out: Inhibitory rates (%); for ID50 against inhibition of angiogenesis: VEGF-induced CAM angiogenesis
Outline: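 Fertilized chicken eggs incubated at 37° C, 55% humidity; on day 10 a window was opened and a cortisone acetate (3 mg/mL)-treated filter disk carrying VEGF at 20 ng/CAM was placed on vessels. Compounds in DMSO/PBS were applied at several concentrations for 3 days; blood vessel number under the disk was counted by stereomicroscopy.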

[2] = test system: TNBS-induced colitis; assay: TNBS-induced colitis model of inflammatory bowel disease; assay type: in vivo, rat (Sprague Dawley)
From the text: To see alleviating effects of the compounds of the present invention on colitis, an animal model induced by TNBS and having colitis was used for the experiments. The animal used herein was a 7 to 8 week Sprague Dawley species purchased from Samtaco Bio Korea. After the purchase, the animal was stabilized with typical solid feed for 2 days before being used for the experiments. The animal was freely supplied with feed and water during the experiments, and stayed in conditions maintaining a cage temperature of about 25±1° C. and relative humidity of about 50±10%. The cage was equipped with an automatic lightening system to adjust 12-hour light-dark cycle.
In regard to the experimental groups, 5 groups (i.e., a control group, a group administered with TNBS only, […], […], […]) were used according to the randomized block design, wherein each group consists of 6 rats having an average weight of about 180±10 g. The rats that had been fasting for 24 hours were anesthetized with diethylether (Et2O), and then, a 1 mL syringe connected with a polyethylene catheter was used to slowly inject 0.8 mL of 3% TNBS into colonic enema through the anus, wherein TNBS was diluted with 50% (v/v) ethanol. To prevent leakage of 3% TNBS from the anus, the rats turned upside down and let stand for 60 minutes.
In regard to the control group, only a vehicle (50% (v/v) ethanol) was injected into the rats of the control group in the same manner as in preparation of other experimental groups. To examine the effects of the drug, after being fasting for 24 hours, the rats were administered with drugs, i.e., 0.1 mg/kg or 1.0 mg/kg of Compounds 8a and 8j, once a day at a certain time from the second day to the fifth day of the TNBS treatment. As a comparative experimental material, 5-ASA, which is an active metabolite of sulfasalazine that is the most well-known as a therapeutic agent for IBDs, was used as a positive control group.
All the rats were scarified on the seventh day of the TNBS administration. […] After the large intestine of the rat was harvested, a 5 to 6 cm-long tissue from was cut from the anus to a size of 1 cm, and then, subjected to measure an intestine weight and activation of myeloperoxidase (MPO) in the tissue, and to perform a biopsy. In addition, changes in weight of all the animals used in the experiments were observed by using a digital mass meter, beginning from the fasting step, the TNBS administration, and the drug administration. In consideration of the management and use of laboratory animals, the animal experiments were followed according to institutional guidelines from Laboratory Animal Resources, Yeungnam University.
To measure the activation of MPO, an MPO assay was used. The colorectal tissue was washed with cold PBS, and a weight thereof was measured. Then, 200 μL of lysis buffer (pH7.4, 200 mM NaCl, 5 mM EDTA, 10 mM Tris, 10% glycerol) was added for each 10 mg of the weight of the tissue, and then, the tissue homogenizer (Bio homogenizer M133, BIOSPEC PRODUCTS Inc. USA) was used for 30 seconds in terms of homogenization. The homogenized sample was subjected to centrifugation (1500×g) twice, each for 15 minutes. The supernatant obtained therefrom was used to measure the activation of MPO by using the MPO ELISA kit (HK210, Hycult Biotechnology, Netherlands). 100 μL of the supernatant was added to the 96-well plates, each of which well was coated with an anti-mouse MPO antibody, to allow a reaction at room temperature for 1 hour, followed by being washed with PBS three times. Here, 100 μL of a reconstituted tracer was added thereto to allow a reaction at room temperature for 1 hour, followed by being washed three times repeatedly. Then, 100 μL of a reptavidin-peroxidase conjugate was added thereto to allow a reaction at room temperature for 1 hours, followed being washed. Then, 100 μL of a TMB substrate solution was added thereto to allow a reaction for 30 minutes. […]

[3] = test system: ARPE-19 cell line; assay: Scavenging of ROS induced by risk factors of macular degeneration (4-HNE, Ang II) in ARPE-19 cells; assay type: cell-based; settings: vs control group
Description: To measure scavenging effects of ROS in HUVEC cells that were induced by VEGF, 2′,7′-dichlorofluorescein diacetate (DCF-DA) was used. […] After […] at a concentration of 1×10^5, each of which well was coated with 0.2% gelatin, DCF-DA was cultured for 24 hours. Meanwhile, Compounds 8a and 8b were pre-treated for 3 hours, induced by VEGF for 15 minutes, and then, washed with PBS (pH 7.4) three times. Then, 10 μM of DCF-DA was placed in a EBM-2 medium to be treated for 30 minutes in a dark room. Then, DCF-DA was washed again with PBS three times, and then, subjected to measure intensity of fluorescence in the cells by using a fluorescence microscope.
According to a similar manner as in Experimental Example 2, a risk factor of macular degeneration, e.g., 4-hydroxynonenal (4-HNE) or angiotensin II (Ang II), were treated with an adult retinal pigment epithelium-19 (ARPE-19) cell line, so as to observe scavenging effects of ROS in Compounds 8a and 8b.

[4] = ARPE-19 treated with 4-hydroxynonenal (4-HNE)
[5] = ARPE-19 treated with angiotensin II (Ang II)

Structure (SMILES)	inhibition in vivo at 0.01 nmol/CAM [1] [%]	ID50 against inhibition of angiogenesis [1]	changes in weights of the rat ([2]; 1.0 mg/kg once a day, TNBS-induced rats)	conditions of the large intestine observed with the naked eye ([2]; 1.0 mg/kg, TNBS-induced rats)	weight of the large intestine ([2]; 1.0 mg/kg, vs TNBS-treated group)	activation of myeloperoxidase (MPO) in colorectal tissue ([2]; 1.0 mg/kg, vs group treated with TNBS only)	intensity of fluorescence (ROS) [3, 4]	intensity of fluorescence (ROS) [3, 5]
CC(=O)Nc1nc(C)c(O)c(C)c1C [Compound 8a, N-(5-hydroxy-3,4,6-trimethylpyridine-2-yl)acetamide]	84.8 ± 10	1.7 pg/CAM and 8.7 fmol/CAM	excellent recovery of the weight compared to the group treated with 5-ASA	excellent inhibitory effects on swelling and congestion	significantly decreased	lower activation of MPO	significant decrease in the intensity of fluorescence	significant decrease in the intensity of fluorescence
CCCCCCCCCCCC(=O)Nc1nc(C)c(O)c(C)c1C [Compound 8b, N-(5-hydroxy-3,4,6-trimethylpyridine-2-yl)dodecanamide]	59.3 ± 5.4	5.0 pg/CAM and 14.9 fmol/CAM	–	–	–	–	significant decrease in the intensity of fluorescence	significant decrease in the intensity of fluorescence
